Test results reported in patent US20220218725A1, “METHODS AND MATERIALS FOR TREATING CANCER” (Mayo Foundation for Medical Education and Research, priority 2019, published 2022).
Like-named read-outs stand apart in the source and are kept apart here.

Assays:
Nonmalignant PBMC = test: Viability of nonmalignant cells, Annexin V/PI assay; format: cell-based, human; details: 48 h, KPT-330 0.05-0.5 μM, CS 1-3 mM
Text: (§1) Primary patient samples were obtained. The mononuclear cells were obtained from bone marrow, spleen, peripheral blood and lymph nodes as follows. Freshly obtained tissue (lymph node, spleen, bone marrow) was placed in mesh screen and using a syringe plunger, the tissue was pressed into a petri dish. Samples were then rinsed through the screen using measured amounts of RPMI until all tissue has been pressed through. […] Subsequently the mononuclear cells were isolated via centrifugation in the presence of ficoll and this step was again repeated following washing the cells with RPMI media.
(§2) To isolate peripheral blood mononuclear cells (PBMCs), freshly obtained patient blood sample of patients were centrifuged in the present of ficoll and this step was repeated twice following washing the cells with PBS. Following isolating the mononuclear cells, the viability was assessed and ascertained proper viability above 80% prior to conduct respective experiments. Non-malignant cells were confirmed not to have a malignant condition by pathology review of the tissue.

Nonmalignant BM MNC = test: as above; format: cell-based, human; details: 48 h, KPT-330 0.05-0.5 μM, CS 1-3 mM
Text: as §1, §2

Nonmalignant splenic MNC = test: as above; format: cell-based, human; details: 48 h, KPT-330 0.05-0.5 μM, CS 1-3 mM
Text: as §1, §2

[1] = test system: U2OS cells transfected with nuclear export reporter construct (NLS-GFP-NES); test: Nuclear export efficiency assay (NLS-GFP-NES reporter); format: cell-based; details: 24 hours, KPT-330 at 0.5 μM, 100 reporter-expressing cells scored
Text: A GFP reporter construct was made using the backbone of pEGFP-N1 vector. Specifically, the green fluorescence (GFP) was in-frame tagged with 3 consecutive copies of nuclear localization sequence (NLS) of SV40 large T antigen to the N-terminus and 3 consecutive copies of nuclear export sequences (NES) of HIV Rev to the C-terminus. The resulting construct encodes NLS-GFP-NES fusion protein capable of shuttling freely between the nucleus and the cytoplasm. The construct DNA was transfection into U2OS cells using Lipofectamine 2000 reagent (Life Technologies) according to product instruction. Six hours post transfection, the cells were treated with vehicle, CS, KPT-330, and K+CS for 24 hours. Finally, the treated cells were fixed with 4% PFA, and permeabilized, and stained for endogenous expression of CRM1 protein with anti-CRM1 antibody (Cell Signaling, Danvers, Mass.; catalog number: 46249, dilution 1:1500). Cell images were collected on a Zeiss LSM 780 confocal microscope.

[2] = Viability of nonmalignant cells, Annexin V/PI assay; format: cell-based, human; details: human, KPT-330 0.05-0.5 μM, CS 1-3 mM, read-out: % viability normalized for respective controls
Text: as §1, §2

Row | Compound | % viability normalized for respective controls (Nonmalignant PBMC) | % viability normalized for respective controls (Nonmalignant BM MNC) | % viability normalized for respective controls (Nonmalignant splenic MNC; Splenic MNC (sample of r39)) | % viability normalized for respective controls (Nonmalignant splenic MNC; Splenic MNC (sample of r40)) | % viability normalized for respective controls (Nonmalignant splenic MNC; Splenic MNC (sample of r41)) | % viability normalized for respective controls (Nonmalignant splenic MNC; Splenic MNC (sample of r42)) | cells with complete nuclear localization of GFP [1] | viability at 48 h ([2]; nonmalignant bone marrow mononuclear cells, BM MNC) | viability at 48 h ([2]; nonmalignant peripheral blood mononuclear cells (PBMC)) | viability at 48 h ([2]; nonmalignant splenic mononuclear cells, Splenic MNC (sample of r39)) | viability at 48 h ([2]; nonmalignant splenic mononuclear cells, Splenic MNC (sample of r40)) | viability at 48 h ([2]; nonmalignant splenic mononuclear cells, Splenic MNC (sample of r41)) | viability at 48 h ([2]; nonmalignant splenic mononuclear cells, Splenic MNC (sample of r42))
1 | C[N+](C)(C)CCO.O=C([O-])c1ccccc1O [CS, choline salicylate] | 78% | 82% | 82% | 64% | 76% | 76% |  |  |  |  |  |  | 
2 | O=C(/C=C\n1cnc(-c2cc(C(F)(F)F)cc(C(F)(F)F)c2)n1)NNc1cnccn1 [KPT-330, (Z)-3-[3-[3,5-bis (trifluoromethyl)phenyl]-1,2,4-triazol-1-yl]-N′-pyrazin-2-ylprop-2-enehydrazide] |  |  |  |  |  |  | 28% | 78% | 86% | 84% | 66% | 59% | 58%
